In patent US7494821B2, “Fluorescein based sensors for tracking nitric oxide in live cells” (Massachusetts Institute of Technology, priority 2005, dated 2009):

Key:
[1] = Fluorescence response to NO in buffered aqueous solution; settings: for fluorescence on reaction with NO-releasing agent SNAP: pH 7.0 (50 mM PIPES, 100 mM KCl), 30 min time interval
Experimental: FIG. 5 depicts the fluorescence response of Cu(FL5) to NO. Fluorescence emission spectra (λex=503 nm) of a deoxygenated 1 μM solution of Cu(FL5) in buffered solution (50 mM PIPES, pH 7.0, 100 mM KCl) before (dashed line), immediately, 1, 2 and 5 min after (solid lines) admission of 1300 equiv of NO (g) at 37° C.
The fluorescence of a 1 μM FL5 solution was diminished by 18±3% upon introduction of an equimolar quantity of CuCl2 at 37° C. Addition of excess NO to a buffered aqueous Cu(FL5) solution led to an immediate 11.2±1.5-fold increase in fluorescence (FIG. 5). […] The lower detection limit for NO is 5 nM.
A commercially available NO probe, DAF-2 (o-diaminofluorescein), was used for comparison with Cu(FL5). The fluorescence of DAF-2 is unchanged in the presence of NO and the absence of O2 over a period of 1 h.
As depicted in FIG. 4, NO detection by Cu(FL5) occurs, formally, by nitric oxide-induced reduction of Cu(II) to Cu(I), forming NO^+, which nitrosates the ligand with concomitant dissociation from copper and fluorescence turn-on. The mechanism of turn-on emission of Cu(FL5) by NO was investigated by EPR, UV-vis, NMR and fluorescence spectroscopy and by liquid chromatography-mass spectrometry (LC-MS, low resolution MS).

[2] = test system: Raw 264.7 murine macrophage cells; assay: Detection of NO produced by iNOS in Raw 264.7 cells (fluorescence imaging); type: cell-based
Experimental: FIG. 8 illustrates Cu(FL5) detection of NO produced by iNOS. (a) NO detection in Raw 264.7 macrophage cells by Cu(FL5). Left to right: Cu(FL5) (1 μM) incubation with cells for 12 h, and 2, 4, 6, 8 h after addition of Cu(FL5) into cells that were pre-stimulated for 4 h with LPS (500 ng mL^−1) and IFN-γ (250 U mL^−1). The times depicted in the figure are the total incubation times with Cu(FL5). Images were taken immediately after removing the media and washing the cells three times with PBS. The instrument used was a Zeiss Axiovert 200M inverted epifluorescence microscope with differential interference contrast (DIC). Top: fluorescence images; bottom: DIC images. (b) Silencing of iNOS by RNAi in Raw 264.7 cells. A plasmid expressing shRNA was constructed to target the mRNA of iNOS. It was transfected into cells. The plasmid vector without insert for RNAi was transfected to establish a control cell line. The expression of iNOS in these two cell lines after stimulated by LPS and IFN-γ for 12 h was investigated by Western blot on the whole cell extracts with antibodies against the protein and actin, which served as loading control (lane 1: cells with control plasmid vector, lane 2: cells with plasmid expressing shRNA for iNOS). (c) NO detection in Raw 264.7 cells with iNOS silenced by RNAi. The two lines in (b) were treated with LPS and IFN-γ for 4 h before 8 h of incubation with Cu(FL5).
In macrophages, nitric oxide is produced by inducible NO synthases (“iNOS”). […] This method colorimetrically determines the concentration of NO2^− resulting from NO oxidation in the extracellular space. Fluorescence detection of NO production by stimulated macrophage cells was also achieved by incubation of the extracellular fluid with DAN and DAFs. These dyes improved the sensitivity of Griess assay, but were unable to reveal NO production inside cells with spatial and temporal fidelity. The present Cu(FL5) construct, however, readily detects NO produced in activated Raw 264.7 cells by fluorescence turn-on. Macrophage cells were incubated with LPS (500 ng/mL) and IFN-γ (250 U/mL) for 4 h, after which 1 μM Cu(FL5) was applied. The fluorescence response was monitored at 2 h intervals by microscopy (FIG. 6a).
To investigate further the origin of fluorescence detected by Cu(FL5), iNOS was silenced in Raw 264.7 cells by short hairpin RNA (shRNA)-induced RNA interference (RNAi) (FIG. 6b).
Raw 264.7, SK-N-SH, and HeLa cells were purchased from the American Type Culture Collection (ATCC). […] The expression of iNOS in Raw 264.7 cells was analyzed by Western blot on the extracts of cells stimulated by LPS and INF-γ. The protein was silenced by short hairpin RNA-induced RNAi and the resulting cell lines were used in fluorescence imaging by Cu(FL5).

[3] = test system: SK-N-SH human neuroblastoma cells; assay: Detection of NO produced by cNOS in SK-N-SH cells (fluorescence imaging); type: cell-based
Experimental: FIG. 7 illustrates Cu(FL5) detection of NO produced by cNOS. (a) NO detection in SK-N-SH cells by Cu(FL5). Left to right: 25 min incubation of Cu(FL5) (1 μM) and 5, 10, 15, 25 min after co-treatment of Cu(FL5) (1 μM) and 17β-estradiol (100 nM). Images were taken with a Nikon Eclipse TS100 microscope after removing the DMEM media and washing the cells with PBS. Top: fluorescence images; bottom: phase contrast images. (b) Fluorescence intensity (F(t)/FCu(FL5)) from a was plotted against incubation time. (c) NO production with or without of L-NNA. Right: NO detection in cells after 10 min co-incubation of Cu(FL5) (1 μM) and 17β-estradiol (100 nM). Left: NO detection in cells pre-treated with L-NNA for 1 h before addition of Cu(FL5) and 17β-estradiol.
We investigated the ability of Cu(FL5) to detect NO produced in SK-N-SH human neuroblastoma cells under physiological conditions, since constitutive NO synthase (“cNOS”) in this cell line can be activated by estrogen to produce NO. Estrogen administration leads to an increase in the cytosolic Ca(II) concentration that alters the structure of calmodulin, which in turn activates cNOS. The NO-dependent fluorescence response, monitored after simultaneous administration of 17β-estradiol (100 nM) and Cu(FL5) (1 μM) to the cells, was completed within 5 min with a 4.0±0.6-fold increase in fluorescence (FIGS. 5a and b). […] As another control, HeLa cells were co-treated with 17β-estradiol (100 nM) and Cu(FL5) (1 μM).
Raw 264.7, SK-N-SH, and HeLa cells were purchased from the American Type Culture Collection (ATCC). All three cell lines were maintained in Dulbecco's modified Eagles' media (DMEM) (GibcoBRL) containing 10% (v/v) heat-inactivated fetal bovine serum (FBS) (HyClone), 1 mM sodium pyruvate (Sigma), 100 units/ml penicillin, 100 μg/ml streptomycin (Invitrogen), and 0.1 mM nonessential amino acid solution for minimal essential medium (Sigma). All cells were grown at 37° C. in a humidified atmosphere of 10% CO2. A nitrite assay was performed with Griess reagents (Promega) on Raw 264.7 cells grown in DMEM free of phenol red. Calcium sensor fluo-4 AM was purchased from Invitrogen. MTT [3-(4,5-dimethylthiazol-2-yl)-2,5-diphenyltetrazolium bromide] (Sigma-Aldrich) assay was described in Supplementary information. The expression of iNOS in Raw 264.7 cells was analyzed by Western blot on the extracts of cells stimulated by LPS and INF-γ. The protein was silenced by short hairpin RNA-induced RNAi and the resulting cell lines were used in fluorescence imaging by Cu(FL5).

| SMILES | fluorescence response to NO under both anaerobic and aerobic conditions [1] | lower detection limit for NO [1] [nM] | increase in fluorescence upon addition of excess NO ([1]; buffered aqueous solution, immediate) [fold] | increase in fluorescence upon addition of NO in the presence of excess EDTA ([1]; excess EDTA chelating Cu(II)) [fold] | fluorescence on reaction with NO-releasing agent SNAP [1] | fluorescence on reaction with NO-releasing agent SNAP ([1]; listed as Cu(II)(FL5)) | average fluorescence in activated Raw 264.7 cells ([2]; LPS (500 ng/mL) and IFN-γ (250 U/mL) 4 h, then 1 μM Cu(FL5), monitored at 2 h intervals) | fluorescence response in Raw 264.7 cells with iNOS silenced by shRNA vs plasmid vector only ([2]; stimulated by LPS and IFN-γ) | fluorescence response in stimulated Raw 264.7 cells in presence of iNOS inhibitor L-NMA ([2]; vs absence of L-NMA) | increase in fluorescence in SK-N-SH cells ([3]; 17β-estradiol (100 nM) and Cu(FL5) (1 μM) administered simultaneously) [fold] | time to complete fluorescence response in SK-N-SH cells ([3]; 17β-estradiol (100 nM), probe 1 μM) [min] | fluorescence response in presence of cNOS inhibitor L-NNA ([3]; 17β-estradiol-stimulated SK-N-SH cells) | fluorescence enhancement in living cells, both cNOS and iNOS ([3]; both cell lines (Raw 264.7 and SK-N-SH)) [fold] | brightness of NO visualization compared with DAF-2 DA ([3]; estradiol-stimulated neuroblastoma cells) | increase in fluorescence when treated with excess NO over 30 min ([1]; control: no Cu(II), over 30 min) [fold] | turn-on fluorescence emission in stimulated Raw 264.7 cells without Cu(II) ion ([2]; LPS and IFN-γ, 12 h incubation period) | fluorescence in stimulated SK-N-SH cells in the absence of Cu(II) ion ([3]; over a period of 25 min) |
| --- | --- | --- | --- | --- | --- | --- | --- | --- | --- | --- | --- | --- | --- | --- | --- | --- | --- |
| Cc1ccc2cccc(NCc3c([O][Cu][Cl])ccc4c(-c5ccccc5C(=O)O)c5cc(Cl)c(=O)cc-5oc34)c2n1 [Cu(FL5)] | immediate fluorescence response | 5 | 11.2±1.5 | 1.3±0.2 | enhanced | turn-on fluorescence | slowly increased over 12 h | much weaker fluorescence response | notably weaker fluorescence response | 4.0±0.6 | ≤ 5 | notably weaker fluorescence response | > 4 | brighter fluorescence than DAF-2 DA |  |  |  |
| Cc1ccc2cccc(NCc3c(O)ccc4c(-c5ccccc5C(=O)O)c5cc(Cl)c(=O)cc-5oc34)c2n1 [FL5, 2-{2-chloro-6-hydroxy-5-[(2-methyl-quinolin-8-ylamino)-methyl]-3-oxo-3H-xanthen-9-yl}-benzoic acid] |  |  |  |  |  |  |  |  |  |  |  |  |  |  | 1.5±0.2 | not observed | no fluorescence increase |
